Experimental data reported in patent US7799907B2, “Method for the preparation of 2′-deoxy-2′,2′-difluorocytidine” (Hanmi Pharm. Co., Ltd, priority 2004, dated 2010).

Assay: Stability of moisture content of the hemihydrate and dihydrate forms on storage
Type: physicochemical
Conditions: for stability for the moisture content changes: under the conditions shown in Table 1
[1] = 40° C. under 75% relative humidity, 1 day
[2] = 40° C. under 75% relative humidity, 7 days
[3] = 40° C. under 75% relative humidity, 14 days

Row | Molecule | Moisture content (%) [1] [%] | Moisture content (%) [2] [%] | Moisture content (%) [3] [%] | Moisture content (%) (Air, 1 day) | Moisture content (%) (Air, 7 days) | Moisture content (%) (Air, 14 days) | stability for the moisture content changes
1 | 2′-Deoxy-2′,2′-difluorocytidine hemihydrate | 3.7 | 3.8 | 3.8 | 3.6 | 3.7 | 3.4 | stable
2 | Nc1ccn([C@@H]2O[C@H](CO)[C@@H](O)C2(F)F)c(=O)n1.O.O [Dihydrate, 2′-Deoxy-2′,2′-difluorocytidine dihydrate] | 12.1 | 11.9 | 11.7 | 11.6 | 11.8 | 11.7 | stable
